Test results reported in US20240376073A1 (Hoffmann-La Roche Inc., priority 2021, published 2024).
Structures can show the parent of a compound that is named as a salt.

test system: Acinetobacter baumannii ATCC17961; experiment: Antimicrobial susceptibility testing: 90% growth inhibitory concentration (IC90) determination; type: cell-based; details: Acinetobacter baumannii ATCC17961; Iso-Sensitest broth; growth by OD 600 nm over 16 h; 35±2° C.; read-out: ATCC 17961 IC90
Outline: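 Twofold serial dilutions (e.g. 50 to 0.097 μM final) in Iso-Sensitest broth, inoculated at ~5×10^(5) CFU/ml, incubated at 35±2° C. OD600 read every 20 min over 16 h; IC90 derived from growth inhibition during logarithmic growth.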

Row | Compound | IC90 [nM]
1 | Cn1c(-c2ccc(OCF)cc2F)cnc1C(=O)Nc1ccc(C(=O)N2CCN(C(=O)C[N+](C)(C)C)CC2)c(Cl)c1 [Example B22, [2-[4-[2-chloro-4-[5-[2-fluoro-4-(fluoromethoxy)phenyl]-1-methyl-imidazole-2-carbonyl]amino]benzoyl]piperazin-1-yl]-2-oxo-ethyl]-trimethyl-ammonium; formate] | 170
2 | CCc1cc(NC(=O)c2ncc(-c3ccc(OC)c(F)c3F)n2C)ccc1C(=O)N1CCC(C(=O)NCCOCC[N+](C)(C)C)CC1 [Example B23, 2-(2-(1-(4-(5-(2,3-difluoro-4-methoxyphenyl)-1-methyl-1H-imidazole-2-carboxamido)-2-ethylbenzoyl)piperidine-4-carboxamido)ethoxy)-N,N,N-trimethylethan-1-aminium iodide] | 410
3 | Cn1c(-c2ccc(OCC#N)c(F)c2F)cnc1C(=O)Nc1ccc(C(=O)N2CCC(C(=O)N[C@H]3CC[N+](C)(C)C3)CC2)c(Cl)c1 [Example B24, (S)-3-(1-(2-chloro-4-(5-(4-(cyanomethoxy)-2,3-difluorophenyl)-1-methyl-1H-imidazole-2-carboxamido)benzoyl)piperidine-4-carboxamido)-1,1-dimethylpyrrolidin-1-ium formate] | 120
4 | COc1ccc(-c2cnc(C(=O)Nc3ccc(C(=O)N4CCN(C(=O)[C@@H]5C[C@@H](O)C[N+]5(C)C)CC4)c(Cl)c3)n2C)c(F)c1F [Example B25, (2S,4R)-2-(4-(2-chloro-4-(5-(2,3-difluoro-4-methoxyphenyl)-1-methyl-1H-imidazole-2-carboxamido)benzoyl)piperazine-1-carbonyl)-4-hydroxy-1,1-dimethylpyrrolidin-1-ium formate] | 120
5 | Cc1cc(NC(=O)c2ncc(-c3ccc(OCC#N)c(F)c3F)n2C)ccc1C(=O)N1CCN(C(=O)C2(O)CC[N+](C)(C)CC2)CC1 [Example B26, 4-(4-(4-(5-(4-(cyanomethoxy)-2,3-difluorophenyl)-1-methyl-1H-imidazole-2-carboxamido)-2-methylbenzoyl)piperazine-1-carbonyl)-4-hydroxy-1,1-dimethylpiperidin-1-ium formate] | 540
6 | Cn1c(-c2ccc(OCC#N)c(F)c2F)cnc1C(=O)Nc1ccc(C(=O)N2CCN(C(=O)[C@@H]3C[C@](C)(O)C[N+]3(C)C)CC2)c(Cl)c1 [Example B27, (2S,4S)-2-(4-(2-chloro-4-(5-(4-(cyanomethoxy)-2,3-difluorophenyl)-1-methyl-1H-imidazole-2-carboxamido)benzoyl)piperazine-1-carbonyl)-4-hydroxy-1,1,4-trimethylpyrrolidin-1-ium formate] | 170
7 | Cc1cc(NC(=O)c2ncc(-c3ccc(OCC#N)c(F)c3F)n2C)ccc1C(=O)N1CCN(C(=O)N[C@@H]2C[N+](C)(C)C[C@H]2O)CC1 [Example B28, (3R,4R)-3-(4-(4-(5-(4-(cyanomethoxy)-2,3-difluorophenyl)-1-methyl-1H-imidazole-2-carboxamido)-2-methylbenzoyl)piperazine-1-carboxamido)-4-hydroxy-1,1-dimethylpyrrolidin-1-ium formate] | 220
8 | Cc1cc(NC(=O)c2ncc(-c3ccc(OCC#N)c(F)c3F)n2C)ccc1C(=O)N1CCN(C(=O)N[C@H]2C[N+](C)(C)C[C@@H]2O)CC1 [Example B29, (3S,4S)-3-(4-(4-(5-(4-(cyanomethoxy)-2,3-difluorophenyl)-1-methyl-1H-imidazole-2-carboxamido)-2-methylbenzoyl)piperazine-1-carboxamido)-4-hydroxy-1,1-dimethylpyrrolidin-1-ium formate] | 250
9 | COc1ccc(-c2cnc(C(=O)Nc3ccc(C(=O)N4CCN(C(=O)[C@@H]5C[C@@](C)(O)C[N+]5(C)C)CC4)c(Cl)c3)n2C)c(F)c1F [Example B30, (2S,4R)-2-(4-(2-chloro-4-(5-(2,3-difluoro-4-methoxyphenyl)-1-methyl-1H-imidazole-2-carboxamido)benzoyl)piperazine-1-carbonyl)-4-hydroxy-1,1,4-trimethylpyrrolidin-1-ium formate] | 110
10 | Cn1c(-c2ccc(OCC#N)c(F)c2F)cnc1C(=O)Nc1ccc(C(=O)N2CCC(C(=O)N3CC([N+](C)(C)C)C3)CC2)c(Cl)c1 [Example B31, [1-[1-[2-chloro-4-[[5-[4-(cyanomethoxy)-2,3-difluoro-phenyl]-1-methyl-imidazole-2-carbonyl]amino]benzoyl]piperidine-4-carbonyl]azetidin-3-yl]-trimethyl-ammonium; formate] | 250
11 | COc1ccc(-c2cnc(C(=O)Nc3ccc(C(=O)NCc4cnn(CC(=O)N5CC[N+](C)(C)CC5)c4)c(Cl)c3)n2C)c(F)c1F [Example B32, N-[3-chloro-4-[1-[2-(4,4-dimethylpiperazin-4-ium-1-yl)-2-oxo-ethyl]pyrazol-4-yl]methylcarbamoyl]phenyl]-5-(2,3-difluoro-4-methoxy-phenyl)-1-methyl-imidazole-2-carboxamide; formate] | 200
12 | COc1ccc(-c2cnc(C(=O)Nc3ccc(C(=O)N4CCN(C(=O)C5CC[N+](C)(C)CC5O)CC4)c(Cl)c3)n2C)c(F)c1F (stereo not drawn) [Example B33, N-[3-chloro-4-[4-(3-hydroxy-1,1-dimethyl-piperidin-1-ium-4-carbonyl)piperazine-1-carbonyl]phenyl]-5-(2,3-difluoro-4-methoxy-phenyl)-1-methyl-imidazole-2-carboxamide; formate] | 130
13 | COc1ccc(-c2cnc(C(=O)Nc3ccc(C(=O)N4CCN(C(=O)[C@@H]5COCC[N+]5(C)C)CC4)c(Cl)c3)n2C)c(F)c1F [Example B35, N-[3-chloro-4-[4-[(3S)-4,4-dimethylmorpholin-4-ium-3-carbonyl]piperazine-1-carbonyl]phenyl]-5-(2,3-difluoro-4-methoxy-phenyl)-1-methyl-imidazole-2-carboxamide; iodide] | 130

same assay, conditions: Acinetobacter baumannii, ATCC17961, 16 h, read-out: ATCC 17961 IC90, Acinetobacter baumannii ATCC17961; Iso-Sensitest broth; growth by OD 600 nm over 16 h; 35±2° C.

Row | Compound | IC90 [nM]
14 | COc1ccc(-c2cnc(C(=O)Nc3ccc(C(=O)N4CCN(C(=O)[C@@H]5C[C@H](O)C[N+]5(C)C)CC4)c(Cl)c3)n2C)c(F)c1F [Example B34, N-[3-chloro-4-[4-[(2S,4S)-4-hydroxy-1,1-dimethyl-pyrrolidin-1-ium-2-carbonyl]piperazine-1-carbonyl]phenyl]-5-(2,3-difluoro-4-methoxy-phenyl)-1-methyl-imidazole-2-carboxamide; formate] | 140
15 | COc1ccc(-c2cnc(C(=O)Nc3ccc(C(=O)N4CCN(C(=O)[C@@H]5[C@@H](O)CC[N+]5(C)C)CC4)c(Cl)c3)n2C)c(F)c1F [Example B36, N-[3-chloro-4-[4-[(2S,3S)-3-hydroxy-1,1-dimethyl-pyrrolidin-1-ium-2-carbonyl]piperazine-1-carbonyl]phenyl]-5-(2,3-difluoro-4-methoxy-phenyl)-1-methyl-imidazole-2-carboxamide; formate] | 220
16 | COc1ccc(-c2cnc(C(=O)Nc3ccc(C(=O)N4CCN(C(=O)[C@@H]5C[C@H](O)CC[N+]5(C)C)CC4)c(Cl)c3)n2C)c(F)c1F [Example B38, N-[3-chloro-4-[4-[(2S,4R)-4-hydroxy-1,1-dimethyl-piperidin-1-ium-2-carbonyl]piperazine-1-carbonyl]phenyl]-5-(2,3-difluoro-4-methoxy-phenyl)-1-methyl-imidazole-2-carboxamide; formate] | 180
17 | COc1ccc(-c2cnc(C(=O)Nc3ccc(C(=O)N4CCN(C(=O)NC5C[N+](C)(C)CC5O)CC4)c(Cl)c3)n2C)c(F)c1F (stereo not drawn) [Example B39, 4-[2-chloro-4-[[5-(2,3-difluoro-4-methoxy-phenyl)-1-methyl-imidazole-2-carbonyl]amino]benzoyl]-N-(4-hydroxy-1,1-dimethyl-pyrrolidin-1-ium-3-yl)piperazine-1-carboxamide; formate] | 110
18 | COc1ccc(-c2cnc(C(=O)Nc3ccc(C(=O)N4CCN(C(=O)[C@@H]5C[C@@H](O)C[N+]5(C)C)CC4)c(Cl)c3)n2C)c(C(F)F)c1F [Example B40, N-[3-chloro-4-[4-[(2S,4R)-4-hydroxy-1,1-dimethyl-pyrrolidin-1-ium-2-carbonyl]piperazine-1-carbonyl]phenyl]-5-[2-(difluoromethyl)-3-fluoro-4-methoxy-phenyl]-1-methyl-imidazole-2-carboxamide; formate] | 260
19 | Cn1c(-c2ccc(OC(F)F)c(F)c2F)cnc1C(=O)Nc1ccc(C(=O)N2CCN(C(=O)[C@@H]3C[C@@H](O)C[N+]3(C)C)CC2)c(Cl)c1 [Example B41, N-[3-chloro-4-[4-[(2S,4R)-4-hydroxy-1,1-dimethyl-pyrrolidin-1-ium-2-carbonyl]piperazine-1-carbonyl]phenyl]-5-[4-(difluoromethoxy)-2,3-difluoro-phenyl]-1-methyl-imidazole-2-carboxamide; formate] | 76
20 | COc1ccc(-c2cnc(C(=O)Nc3ccc(C(=O)N4CCN(C(=O)[C@@H]5C[C@@H](CO)C[N+]5(C)C)CC4)c(Cl)c3)n2C)c(F)c1F [Example B42, N-[3-chloro-4-[4-[(2S,4R)-4-(hydroxymethyl)-1,1-dimethyl-pyrrolidin-1-ium-2-carbonyl]piperazine-1-carbonyl]phenyl]-5-(2,3-difluoro-4-methoxy-phenyl)-1-methyl-imidazole-2-carboxamide; formate] | 140
21 | COc1ccc(-c2cnc(C(=O)Nc3ccc(C(=O)N4CCN(C(=O)[C@@H]5C[C@@H](O)C[N+]5(C)C)CC4)c(Cl)c3)n2C)c(Cl)c1F [Example B43, 5-(2-chloro-3-fluoro-4-methoxy-phenyl)-N-[3-chloro-4-[4-[(2S,4R)-4-hydroxy-1,1-dimethyl-pyrrolidin-1-ium-2-carbonyl]piperazine-1-carbonyl]phenyl]-1-methyl-imidazole-2-carboxamide; formate] | 120
